Experiment [1] concerns the target T1, Bifunctional epoxide hydrolase 2 (Homo sapiens) (UniProt P34913).
T1 sequence (whole entry): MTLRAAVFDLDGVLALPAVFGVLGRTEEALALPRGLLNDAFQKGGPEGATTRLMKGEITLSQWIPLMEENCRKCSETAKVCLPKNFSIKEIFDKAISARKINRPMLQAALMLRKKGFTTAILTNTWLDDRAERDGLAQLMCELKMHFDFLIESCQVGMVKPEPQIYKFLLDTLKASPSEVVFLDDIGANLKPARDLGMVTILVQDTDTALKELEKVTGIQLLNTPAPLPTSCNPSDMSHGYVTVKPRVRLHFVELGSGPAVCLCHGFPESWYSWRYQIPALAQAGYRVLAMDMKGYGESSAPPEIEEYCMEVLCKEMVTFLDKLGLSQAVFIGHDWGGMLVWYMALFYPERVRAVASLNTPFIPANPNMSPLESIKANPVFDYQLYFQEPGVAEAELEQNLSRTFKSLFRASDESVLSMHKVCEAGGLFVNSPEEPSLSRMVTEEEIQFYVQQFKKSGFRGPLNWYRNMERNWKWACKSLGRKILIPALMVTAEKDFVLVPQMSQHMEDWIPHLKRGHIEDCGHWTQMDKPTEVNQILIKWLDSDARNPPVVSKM
Briefly: Inhibition of sEH (unknown origin) at 100 uM using PHOME as substrate after 40 mins by fluorescence photometric method relative to control.

Experiment [2] has as its target T1, Bifunctional epoxide hydrolase 2 (Homo sapiens). Briefly: (§1) Inhibition of sEH (unknown origin) using PHOME as substrate after 40 mins by fluorescence photometric method.
The target of experiment [3] is T2, Bifunctional epoxide hydrolase 2 (Homo sapiens, UniProt P34913).
T2 sequence (P34913 whole entry): T1 sequence (whole entry)
The description is as §1.

Experiment [4] concerns the target T1, Bifunctional epoxide hydrolase 2 (Homo sapiens). Particulars: 0.78 to 6.25 uM.
The target is the same in experiment [5]. Briefly: Competitive inhibition of sEH (unknown origin) at 0.78 to 6.25 uM using PHOME as substrate measured for 30 mins by Lineweaver-burk plot method.
For experiment [6] the target is unchanged. Briefly: Mixed type inhibition of sEH (unknown origin) at 0.78 to 6.25 uM using PHOME as substrate measured for 30 mins by Lineweaver-burk plot method.

SMILES strings stand for the structures. The source made the active and inactive calls. The calls are words filed in the database; no cut-off is given here.

In the case of `COc1ccc(/C=C/C(=O)OCC(=O)Cc2ccc(O)c(O)c2)cc1O` [CIMIRACEMATE A], the results for the inhibition in experiment [1] and in experiment [2] were 104% and “Dose-dependent effect”, respectively. Half-maximal inhibition in experiment [3] (IC50) was put at 1100 nM. Besides, the inhibition (commonly the relative decrease from the control value, in per cent) in experiment [4] is “Active”.
`CC(C)=C/C=C1/C(=O)Nc2ccccc21`: the inhibition was 95.1% in experiment [1] and “Dose-dependent effect” in experiment [2]. Further, half-maximal inhibition in experiment [3] (IC50) required 1000 nM. In addition, the inhibition result in experiment [5] was “Active”.
The corresponding values for `CC(C)=C/C=C1\C(=O)N(C)c2ccccc21` are 77%, “Dose-dependent effect”, 1300 nM and “Active”.
Turning to `COc1ccc(/C=C/C(=O)OCC(=O)c2ccc(O)c(O)c2)cc1O`, the inhibition was 98.3% in experiment [1] and “Dose-dependent effect” in experiment [2]. Moreover, the IC50 (as a rule, the concentration needed to halve the response being measured) in experiment [3] turned out to be 1600 nM. Moreover, the inhibition result in experiment [6] was “Active”.
As for `O=C(/C=C/c1ccc(O)c(O)c1)O[C@@H]1C[C@](O)(C(=O)O)C[C@@H](OC(=O)/C=C/c2ccc(O)c(O)c2)[C@H]1O`, the figures for the inhibition in experiment [1] and in experiment [2] were 81.3% and “Dose-dependent effect”, respectively. Moreover, inhibition in experiment [3] was half-maximal at 2800 nM (IC50). Also, the inhibition result in experiment [6] was “Active”.
In the same order, the values of `COC(=O)/C=C/c1ccc(O)c(OC)c1` are 99.2%, “Dose-dependent effect”, 1800 nM and “Active”.
For the compound `CC(C)=C/C=C1/C(=O)N(C)c2ccccc21`, the results for the inhibition in experiment [1] and in experiment [2] were 80.2% and “Dose-dependent effect”, respectively. In experiment [3], this compound had an IC50 of 800 nM. For the same compound, in experiment [5], the inhibition result is “Active”.

(Values after ChEMBL document CHEMBL4007474, “Soluble epoxide hydrolase inhibitors of indolinone alkaloids and phenolic derivatives from Cimicifuga dahurica (Turcz.) Maxim” (Bioorg Med Chem Lett, 2017).)
